Source: patent US20240130675A1, “Methods for Treating Autism Spectrum Disorder” (The General Hospital Corporation, priority 2021, published 2024)

Test system: youth with ASD
Assay: Treatment response based on baseline PgACC glutamate activity (high vs normal; treatment group-by-glutamate-by-visit interaction)
Type: in vivo, human
Conditions: for Mean # of AEs / # of Participants with AEs / Treatment-Limiting AEs: TOLERABILITY
Procedure: The primary outcome was analyzed using Pearson's chi-square test at the a priori defined significance level of 0.05. Secondary measures of efficacy were analyzed using mixed-effects regression models with robust standard errors to account for the repeated measures on each subject. The primary and secondary measures were compared between memantine versus placebo as well as between those with high versus normal baseline glutamate activity levels. Participants were categorized as having high versus normal glutamate activity levels at baseline using z-scores. The population mean and SD for z-score calculations were derived from healthy control glutamate activity levels (baseline and endpoint). Glutamate activity levels with z-scores≥1 were categorized as high glutamate activity levels, those with z-scores<1 and >−1 were categorized as normal glutamate activity levels and those with z-scores≤−1 were categorized as low glutamate activity levels. Changes in PgACC glutamate activity levels within groups were tested using paired t-tests and changes between groups were tested using two-sample t-tests. We also performed ROC curve analyses to determine the predictive utility of baseline PgACC glutamate activity levels in identifying treatment responders within the memantine and placebo groups. All analyses apart from the analysis of the primary outcome were considered exploratory. Analyses were performed using a modified intent-to-treat analysis set which included all randomized patients who were regarded exposed to study medication (completed at least two weeks of treatment) and had at least one follow-up assessment.
The mixed-effects regression models used to analyze the secondary measures of efficacy predicted the outcome measure from treatment group (memantine versus placebo), study visit (continuous), and the treatment group-by-study visit interaction, which is our test of efficacy. To examine the effect of baseline PgACC glutamate activity level on the response to treatment, we predicted outcomes measures from treatment group, study visit (continuous), PgACC glutamate activity level (continuous), treatment group-by-study visit interaction, glutamate activity level-by-study visit interaction, treatment group-by-glutamate activity level interaction, and treatment group-by-glutamate activity level-by-study visit interaction. All mixed-effects regression models had random intercepts by subject ID, used robust standard errors to account for the repeated measures on each subject, and used an independent covariance structure for the random effects. […] All missing data were assumed to be missing at random.
Effect sizes are presented as standardized mean differences (SMD) for continuous outcomes and odds ratios (OR) for dichotomous outcomes. The SMDs for the difference of the changes in scores over time between memantine and placebo and between high glutamate and normal glutamate were calculated as Cohen's d using the following calculations: the difference in the change scores between the two groups divided by the pooled standard deviation. The SMDs for changes in scores within groups were calculated as Cohen's d using the following calculation: difference in score from baseline to endpoint divided by the pooled standard deviation. For comparisons of memantine versus placebo and high glutamate versus normal glutamate, positive SMDs and ORs>1 indicate better improvement in the memantine group and high glutamate group, respectively. For comparisons of ASD versus healthy controls, positive SMDs indicate lower glutamate activity levels in the ASD group. As defined by Cohen (Statistical Power Analysis for the Behavioral Sciences. 2nd ed. Hillsdale, NJ: Erlbaum. 1988), a SMD=0.2 is interpreted as a small effect size, SMD=0.5 as medium, and SMD=0.8 as large. We considered ORs>2 to be clinically meaningful.

[1] = HIGH glutamate activity levels, MEM N = 10
[2] = NORMAL glutamate activity levels, MEM N = 5
[3] = NORMAL glutamate activity levels, MEM N = 8

Structure (SMILES): CC12CC3CC(C)(C1)CC(N)(C3)C2 [MEM, memantine]
- ABC-Social Withdrawal MD [1]: −8.5 ± 7.6
- ADHD-RS MD [1]: −9.9 ± 11.7
- CASI-ANX MD [1]: −10.3 ± 5.1
- CDRS-R MD [1]: −9.8 ± 11.2
- CGI-1≤2 [1]: 9 (90) N (%)
- CY-BOCS-PDD MD [1]: −0.5 ± 1.6
- GAF MD [1]: 9.1 ± 5.4
- SRS-Autistic Mannerisms MD [1]: −10.3 ± 5.3
- SRS-SCI MD [1]: −39.8 ± 21.1
- SRS-Social Awareness MD [1]: −5.0 ± 4.2
- SRS-Social Cognition MD [1]: −8.1 ± 5.8
- SRS-Social Communication MD [1]: −17.9 ± 7.7
- SRS-Social Motivation MD [1]: −8.8 ± 5.3
- SRS-Total MD [1]: −50.1 ± 25.7
- ≥25% ↓↓SRS [1]: 9 N
- ≥25% ↓↓SRS + CGI-I ≤ 2 [1]: 8 (80) N (%)
- ABC-Social Withdrawal MD [2]: −3.6 ± 5.6
- ADHD-RS MD [2]: −8.2 ± 7.4
- CASI-ANX MD [2]: −2.4 ± 5.2
- CDRS-R MD [2]: −8.0 ± 11.8
- CGI-≤2 [2]: 3 (60) N (%)
- CY-BOCS-PDD MD [2]: −2.0 ± 2.8
- GAF MD [2]: 4.6 ± 4.3
- SRS-Autistic Mannerisms MD [2]: −1.8 ± 5.1
- SRS-SCI MD [2]: −9.2 ± 5.3
- SRS-Social Awareness MD [2]: −0.8 ± 1.8
- SRS-Social Cognition MD [2]: −2.0 ± 2.6
- SRS-Social Communication MD [2]: −2.8 ± 2.7
- SRS-Social Motivation MD [2]: −3.0 ± 4.0
- SRS-Total MD [2]: −10.6 ± 10.6
- ≥25% WISRS±CGI-1≤2 [2]: 0 (0) N (%)
- ≥25% WLSRS [2]: 0 (0) N (%)
- Mean # of AEs (HIGH glutamate activity levels, MEM N = 7): 2.4 ± 1.3
- # of Participants with AEs [1]: 7 (70) N (%)
- Treatment-Limiting AEs [1]: 0 (0) N (%)
- Mean # of AEs (NORMAL glutamate activity levels, MEM N = 6): 2.8 ± 1.0
- # of Participants with AEs [3]: 4 (50) N (%)
- Treatment-Limiting AEs [3]: 2 (25) N (%)
- Association of higher baseline PgACC glutamate activity levels with change scores (SRS Total, SRS-SCI, ABC-Social Withdrawal) (memantine group): greater change scores
